Measured values taken from patent US5686486A, “4-hydroxy-benzopyran-2-ones and 4-hydroxy-cycloalkyl[b]pyran-2-ones useful to treat retroviral infections” (priority 1995, dated 1997).
Structures can show the parent of a compound that is named as a salt.

What was measured:
HIV-1 protease [1] = molecular target: T1, HIV-1 protease (Human immunodeficiency virus type 1 group M subtype B, UniProt P04585); experiment: biochemical; conditions: for inhibition at 0.123 µM: read-out: HIV-1 Protease % Inhib, dose 0.123 uM; for inhibition at 0.37 µM: read-out: HIV-1 Protease % Inhib, dose 0.370 uM; for inhibition at 1.1 µM: read-out: HIV-1 Protease % Inhib, dose 1.100 uM; for inhibition at 3.3 µM: read-out: HIV-1 Protease % Inhib, dose 3.300 uM; for inhibition at 10 µM: read-out: HIV-1 Protease % Inhib, dose 10.000 uM; for inhibition at 30 µM: read-out: HIV-1 Protease % Inhib, dose 30.000 uM
Outline: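 Percent inhibition derived from fluorescent cleavage product separated by filtration after streptavidin-bead capture of intact biotin/FITC substrate. Reaction: enzyme (10 μl, 0.1 μM stock) with substrate (20 μl, 0.2 μM stock) and compound, 1 h at room temperature in dark, pH 5.5 acetate buffer with 1.0 M NaCl and 0.05% NP-40.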

HIV-1 protease [2] = molecular target: T1, HIV-1 protease; experiment: biochemical; conditions: read-out: HIV-1 FITC KI
Outline: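 Enzyme (40 nM stock) and substrate (200 μM stock) incubated with inhibitor, 24–48 two-fold serial concentrations, for 90 min at room temperature, then quenched with avidin beads. Nonlinear least-squares analysis gives Ki; a known-Ki inhibitor validates each run.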

With O=c1oc2c(c(O)c1C(c1cccc(NS(=O)(=O)c3ccc(N=Nc4ccccc4)cc3)c1)C1CC1)CCCCCC2 (centres unmarked) [Example 308, N-[3-[Cyclopropyl(5,6,7,8,9,10-hexahydro-4-hydroxy-2-oxo-2H-cycloocta[b]pyran-3-yl)methyl]phenyl]4-(phenylazo)-benzenesulfonamide] the inhibition at 0.123 µM (HIV-1 protease [1]) was 46.5%, the inhibition at 0.37 µM (HIV-1 protease [1]) was 70.4% and the inhibition at 1.1 µM (HIV-1 protease [1]) was 82.3%. For the same compound, the inhibition at 3.3 µM (HIV-1 protease [1]) was 91.3%, the inhibition at 10 µM (HIV-1 protease [1]) was 96.9% and the inhibition at 30 µM (HIV-1 protease [1]) was 86.8%. The Ki (HIV-1 protease [2]) was 3.1 nM.
O=c1oc2c(c(O)c1C(c1cccc(NS(=O)(=O)c3cc(Cl)c(Cl)s3)c1)C1CC1)CCCCCC2 (centres unmarked) [Example 302, 4,5-Dichloro-N-[3-[cyclopropyl(5,6,7,8,9,10-hexahydro-4-hydroxy-2-oxo-2H-cycloocta[b]pyran-3-yl)methyl]phenyl]-2-thiophenesulfonamide] gave an inhibition at 0.123 µM (HIV-1 protease [1]) of 78.6%, an inhibition at 0.37 µM (HIV-1 protease [1]) of 97.8% and an inhibition at 1.1 µM (HIV-1 protease [1]) of 105%. For the same compound, the inhibition at 3.3 µM (HIV-1 protease [1]) was 113%, the inhibition at 10 µM (HIV-1 protease [1]) was 115% and the inhibition at 30 µM (HIV-1 protease [1]) was 112%. It also gave a Ki (HIV-1 protease [2]) of 2.7 nM.
For N#Cc1ccc(S(=O)(=O)Nc2cccc(C(c3c(O)c4c(oc3=O)CCCCCC4)C3CC3)c2)cc1 (centres unmarked) [Example 402, Sodium Salt of 4-Cyano-N-[3-[cyclopropyl(5,6,7,8,9,10-hexahydro4-hydroxy-2-oxo-2H-cycloocta[b]pyran-3-yl)methyl]phenyl]-benzenesulfonamide], the “HIV-1 Protease % Inhib” value (HIV-1 protease [1]; dose 0.123 uM) was 103.69%, the “HIV-1 Protease % Inhib” value (HIV-1 protease [1]; dose 0.370 uM) was 106.4% and the “HIV-1 Protease % Inhib” value (HIV-1 protease [1]; dose 1.100 uM) was 110.07%. The “HIV-1 Protease % Inhib” value (HIV-1 protease [1]; dose 3.300 uM) was 100.22%, the “HIV-1 Protease % Inhib” value (HIV-1 protease [1]; dose 10.000 uM) was 98.03% and the “HIV-1 Protease % Inhib” value (HIV-1 protease [1]; dose 30.000 uM) was 98.47%. It also gave a Ki (HIV-1 protease [2]) of 0.62 nM.
CCCC1CCCCCc2c1oc(=O)c([C@@H](c1ccccc1)C1CC1)c2O (mixture of isomers) [Example 232, 3-(R)-(Cyclopropylphenylmethyl)-4-hydroxy-10-(R and S)-propyl-5,6,7,8,9,10-hexahydro-cycloocta[b]pyran-2-one] showed an inhibition at 0.123 µM (HIV-1 protease [1]) of 19.3%, an inhibition at 0.37 µM (HIV-1 protease [1]) of 51.2% and an inhibition at 1.1 µM (HIV-1 protease [1]) of 80.4%. The inhibition at 3.3 µM (HIV-1 protease [1]) was 95.3%, the inhibition at 10 µM (HIV-1 protease [1]) was 104% and the inhibition at 30 µM (HIV-1 protease [1]) was 95%. It also gave a Ki (HIV-1 protease [2]) of 30 nM.
In the case of CC(C)(C)OC(=O)NCC(=O)Nc1cccc(C(c2c(O)c3c(oc2=O)CCCCCC3)C2CC2)c1 (single isomer, unassigned) [Example 238, Carbamic acid, [2-[[3-(R or S)-[cyclopropyl(5,6,7,8,9,10-hexahydro-4-hydroxy-2-oxo-2H-cycloocta[b]pyran-3-yl)methyl]phenyl]amino]-2-oxoethyl]-, 1,1-dimethyl ethyl ester], the “HIV-1 Protease % Inhib” value (HIV-1 protease [1]; dose 0.123 uM) is reported as 30.5%, the inhibition at 0.37 µM (HIV-1 protease [1]) is reported as 76.4% and the inhibition at 1.1 µM (HIV-1 protease [1]) is reported as 96.3%. The inhibition at 3.3 µM (HIV-1 protease [1]) was 99.9%, the inhibition at 10 µM (HIV-1 protease [1]) was 116% and the inhibition at 30 µM (HIV-1 protease [1]) was 115%. The Ki (HIV-1 protease [2]) was 13.4 nM.
CC(C)N=C(Nc1cccc(C(c2c(O)c3c(oc2=O)CCCCCC3)C2CC2)c1)NC(C)C (centres unmarked) [Example 120, N-(3-(cyclopropyl-(4-hydroxy-2-oxo-5,6,7,8,9,10-hexahydro-2H-cycloocta[b]pyran-3-yl)-methyl)-phenyl)-N',N"-diisopropyl-guanidine] showed an inhibition at 0.41 µM (HIV-1 protease [1]; read-out: HIV-1 Protease % Inhib, dose 0.410 uM) of less than 10%, an inhibition at 1.23 µM (HIV-1 protease [1]; read-out: HIV-1 Protease % Inhib, dose 1.230 uM) of 22.2% and an inhibition at 3.7 µM (HIV-1 protease [1]; read-out: HIV-1 Protease % Inhib, dose 3.700 uM) of 54.6%. For the same compound, the inhibition at 11 µM (HIV-1 protease [1]; read-out: HIV-1 Protease % Inhib, dose 11.000 uM) was 80.7%, the inhibition at 33 µM (HIV-1 protease [1]; read-out: HIV-1 Protease % Inhib, dose 33.000 uM) was 101% and the inhibition at 100 µM (HIV-1 protease [1]; read-out: HIV-1 Protease % Inhib, dose 100.000 uM) was 106%. The Ki (HIV-1 protease [2]) was 982 nM.
O=C1c2ccccc2C(=O)N1CCS(=O)(=O)Nc1cccc(C(c2c(O)c3c(oc2=O)CCCCCC3)C2CC2)c1 (centres unmarked) [Example 327, N-[3-[Cyclopropyl(5,6,7,8,9,10-hexahydro-4-hydroxy-2-oxo-2H-cycloocta[b]pyran-3-yl)methyl]phenyl]-1,3-dihydro-1,3-dioxo-2H-isoindole-2-ethanesulfonamide] was tested, and the inhibition at 0.123 µM (HIV-1 protease [1]) was 34.2%, the inhibition at 0.37 µM (HIV-1 protease [1]) was 68.2% and the inhibition at 1.1 µM (HIV-1 protease [1]) was 94.8%. For the same compound, the inhibition at 3.3 µM (HIV-1 protease [1]) was 105%, the inhibition at 10 µM (HIV-1 protease [1]) was 106% and the inhibition at 30 µM (HIV-1 protease [1]) was 113%. For the same compound, the Ki (HIV-1 protease [2]) was 13.5 nM.
With CN(C)S(=O)(=O)Nc1cccc(C(c2c(O)c3c(oc2=O)CCCCCC3)C2CC2)c1 (centres unmarked) [Example 398, N'-[3-[cyclopropyl(5,6,7,8,9,10-hexahydro4-hydroxy-2-oxo-2H-cycloocta[b]pyran-3-yl)methyl]phenyl]-N,N-dimethyl-sulfamide] the inhibition at 0.123 µM (HIV-1 protease [1]) was 10.5%, the inhibition at 0.37 µM (HIV-1 protease [1]) was 40.9% and the inhibition at 1.1 µM (HIV-1 protease [1]) was 74.2%. The inhibition at 3.3 µM (HIV-1 protease [1]) was 91.5%, the inhibition at 10 µM (HIV-1 protease [1]) was 105% and the inhibition at 30 µM (HIV-1 protease [1]) was 105%. It also gave a Ki (HIV-1 protease [2]) of 41.5 nM.
